The record followed here is patent US6245799A, “[(Indol-3-yl)-cycloalkyl]-3-substituted azetidines for the treatment of central nervous system disorders” (American Home Products Corp, priority 2000, dated 2001).

In one assay the target is T1, 5-HT transporter (Rattus norvegicus, UniProt P31652).
T1 construct: frontal cortical membranes prepared from male S.D. rats; from tissue; host or cells: frontal cortical membranes of male S.D. (Sprague-Dawley) rats
Description: Rat Brain ^3 H-Paroxetine Binding Assay (RB 5HT Transporter). From the text: The 5-HT transporter affinity of the compounds of this invention was established in accordance with standard pharmaceutically accepted test procedures with representative compounds as follows:
Rat Brain ^3 H-Paroxetine Binding Assay (RB 5HT Transporter):
The following assay was used to determine a compound's affinity for the 5-HT transporter.
A protocol similar to that used by Cheetham et. al. (Neuropharmacol. 1993, 32, 737) was used. Briefly, frontal cortical membranes prepared from male S.D. rats were incubated with ^3 H-paroxetine (0.1 nM) for 60 min. at 25° C. All tubes also contained either vehicle, test compound (one to eight concentrations), or a saturating concentration of fluoxetine (10 μM) to define […]. All reactions are terminated by the addition of ice cold Tris buffer followed by rapid filtration using a Tom Tech filtration device to separate bound from free ^3 H-paroxetine. Bound radioactivity was quantitated using a Wallac 1205 Beta Plate® counter. Nonlinear regression analysis was used to determine IC50 values which were converted to Ki values using the method of Cheng and Prusoff (Biochem. Pharmacol. 1973, 22, 3099): [formula]

Another assay addresses T2, Human 5-HT Transporter (Homo sapiens, UniProt P31645).
T2 construct: endogenous in cells; host or cells: Jar cells (human carcinoma cell line), treated with staurosporine to raise expression
The experiment in a line: Inhibition of ^3 H-5-HT Uptake by cells Possessing the Human 5-HT Transporter (HC 5HT Transporter). The assay is classed as cell-based. The procedure: [Staurosporine greatly increases the expression of the 5-HT-transporter.] On the day of assay, vehicle, excess of fluoxetine, or test compound is added to various wells on the plate. All wells then receive ^3 H-5-HT and are incubated at 37° C. for 5 min. The wells are then washed with ice cold 50 mM Tris HCl (pH 7.4) buffer and aspirated to remove free ^3 H-5-HT. 25 μl of 0.25 M NaOH is then added to each well to lyse the cells and 75 μl scintillation cocktail (Microscint™ 20) added prior to quantitation on a Packard TopCount machine. Tubes with vehicle represent total possible uptake, radioactivity counted in tubes with fluoxetine represent nonspecific binding/uptake and is subtracted from the total possible uptake to give total possible specific uptake. This nonspecific binding (usual low in number) is then subtracted from the counts obtained in wells with various test compounds (or different concentrations of test drug) to give specific uptake in the presence of drug. Specific uptake is then expressed as a % of control values and is analyzed using nonlinear regression analysis (Prizm) to determine IC50 values. If the compound is active at inhibiting 5-HT uptake, its counts will be close to that obtained with fluoxetine.

[1] abbreviates: rat frontal cortical membranes; ^3 H-paroxetine (0.1 nM), 60 min, 25° C.; n = 1; read-out: RB 5HT Transporter Ki.
[2] abbreviates: Jar cells (human carcinoma), staurosporine treated, ^3 H-5-HT uptake, 37° C., 5 min, n = 1, read-out: HC 5HT Transporter IC50.
[3] abbreviates: RB 5HT Transporter Ki, rat frontal cortical membranes; ^3 H-paroxetine (0.1 nM), 60 min, 25° C.; n = 1.

Like-named read-outs stand apart in the source and are kept apart here.

The Ki is the equilibrium dissociation constant of an inhibitor or competing ligand from its target. As a reminder, the IC50 is the point on the concentration scale where inhibition reaches its midpoint.

T2 sequence (P31645 whole entry): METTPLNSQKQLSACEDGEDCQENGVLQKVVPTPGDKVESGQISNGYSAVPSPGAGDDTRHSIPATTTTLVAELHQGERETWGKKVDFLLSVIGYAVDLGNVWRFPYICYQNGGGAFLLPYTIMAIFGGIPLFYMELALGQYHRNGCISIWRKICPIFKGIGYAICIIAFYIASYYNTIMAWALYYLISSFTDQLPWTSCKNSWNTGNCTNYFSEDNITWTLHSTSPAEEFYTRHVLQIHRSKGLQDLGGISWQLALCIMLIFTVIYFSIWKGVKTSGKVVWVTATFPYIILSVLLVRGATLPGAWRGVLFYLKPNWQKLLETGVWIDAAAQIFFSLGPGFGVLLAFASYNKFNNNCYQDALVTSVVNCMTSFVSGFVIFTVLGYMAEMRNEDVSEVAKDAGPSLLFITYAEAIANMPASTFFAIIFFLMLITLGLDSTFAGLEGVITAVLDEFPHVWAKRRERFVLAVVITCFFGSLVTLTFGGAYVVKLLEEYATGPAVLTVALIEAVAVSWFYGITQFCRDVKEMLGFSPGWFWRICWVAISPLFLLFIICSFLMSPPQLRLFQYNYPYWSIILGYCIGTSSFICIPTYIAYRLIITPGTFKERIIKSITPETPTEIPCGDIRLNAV
T1 sequence (P31652 whole entry): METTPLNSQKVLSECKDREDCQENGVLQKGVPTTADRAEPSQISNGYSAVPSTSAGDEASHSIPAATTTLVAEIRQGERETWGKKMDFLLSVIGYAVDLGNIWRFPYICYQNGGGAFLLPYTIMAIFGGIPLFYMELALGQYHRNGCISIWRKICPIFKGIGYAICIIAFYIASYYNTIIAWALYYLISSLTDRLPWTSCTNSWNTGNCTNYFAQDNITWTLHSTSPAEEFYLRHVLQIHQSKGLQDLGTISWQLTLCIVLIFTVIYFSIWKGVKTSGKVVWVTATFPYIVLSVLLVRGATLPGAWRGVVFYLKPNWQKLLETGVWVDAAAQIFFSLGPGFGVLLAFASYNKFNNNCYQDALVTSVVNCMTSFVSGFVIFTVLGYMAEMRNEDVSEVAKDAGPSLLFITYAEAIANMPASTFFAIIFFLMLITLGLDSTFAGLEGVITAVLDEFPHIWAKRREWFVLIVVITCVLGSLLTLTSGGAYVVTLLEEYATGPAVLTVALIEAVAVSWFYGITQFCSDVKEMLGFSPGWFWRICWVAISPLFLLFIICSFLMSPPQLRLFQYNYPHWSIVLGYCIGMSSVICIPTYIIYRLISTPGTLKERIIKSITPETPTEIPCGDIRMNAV

For `N#Cc1ccc2[nH]cc([C@H]3CC[C@@H](N4CC(Oc5cccc(F)c5)C4)CC3)c2c1` [Example 2a, 3-(cis-4-[3-(3-Fluoro-phenoxy)-azetidin-1-yl]-cyclohexyl)-1H-indole-5-carbonitrile], the Ki on 5-HT transporter (setting [1]) stood at 16 nM. For the same compound, the IC50 at Human 5-HT Transporter (setting [2]) was found to be 337 nM.

Regarding `COc1cccc(OC2CN([C@H]3CC[C@H](c4c[nH]c5ccc(C#N)cc54)CC3)C2)c1` [Example 3b], affinity on 5-HT transporter (setting [3]) was put at a Ki of 11 nM. The same compound registered an IC50 on Human 5-HT Transporter of 232 nM.

For the compound `COc1ccccc1NC1CN([C@H]2CC[C@H](c3c[nH]c4ccccc43)CC2)C1` [Example 5b, {1-[trans-4-(1H-Indol-3-yl)-cyclohexyl]-azetidin-3-yl}-(2-methoxy-phenyl)-amine], on 5-HT transporter (setting [3]), the Ki is 34 nM.

The compound `Fc1cccc(OC2CN([C@H]3CC[C@H](c4c[nH]c5ccccc54)CC3)C2)c1` [Example 9b, 3-{4-[3-(3-Fluoro-phenoxy)-azetidin-1-yl]-cyclohexyl}-1H-indole] gave a Ki at 5-HT transporter (setting [3]) of 455 nM.

At 5-HT transporter (setting [3]), `COc1ccccc1NC1CN([C@H]2CC[C@@H](c3c[nH]c4ccccc43)CC2)C1` [Example 5a, {1-[cis-4-(1H-Indol-3-yl)-cyclohexyl]-azetidin-3-yl}-(2-methoxy-phenyl)-amine] showed a Ki of 124 nM.

Regarding `Fc1cccc(OC2CN([C@H]3CC[C@@H](c4c[nH]c5ccc(F)cc54)CC3)C2)c1` [Example 7a, 5-Fluoro-3-{cis-4-[3-(3-fluoro-phenoxy)-azetidin-1-yl]-cyclohexyl}-1H-indole], on 5-HT transporter (setting [1]), the Ki was 257 nM.

On to `COc1cccc(OC2CN([C@H]3CC[C@@H](c4c[nH]c5ccc(F)cc54)CC3)C2)c1` [Example 8a, 5-Fluoro-3-{cis-4-[3-(3-methoxy-phenoxy)-azetidin-1-yl]-cyclohexyl}-1H-indole], for which the Ki on 5-HT transporter (setting [1]) is 24 nM. On Human 5-HT Transporter (setting [2]), the IC50 worked out at 6000 nM.

The compound `COc1cccc(OC2CN([C@H]3CC[C@@H](c4c[nH]c5ccc(C#N)cc54)CC3)C2)c1` [Example 3a] had a Ki at 5-HT transporter (setting [3]) of 2.38 nM. The compound further came in with an IC50 on Human 5-HT Transporter of 91 nM.

Regarding `N#Cc1ccc2[nH]cc([C@H]3CC[C@H](N4CC(Oc5cccc(F)c5)C4)CC3)c2c1` [Example 2b, 3-(trans-4-[3-(3-Fluoro-phenoxy)-azetidin-1-yl]-cyclohexyl)-1H-indole-5-carbonitrile], the Ki at 5-HT transporter (setting [1]) worked out at 48 nM. The IC50 at Human 5-HT Transporter (setting [2]) was determined as 282 nM.

Turning to `COc1ccccc1NC1CN([C@H]2CC[C@@H](c3c[nH]c4ccc(F)cc43)CC2)C1` [Example 1a], at 5-HT transporter (setting [1]), the inhibitory constant (Ki) stood at 15 nM. For the same compound, the IC50 at Human 5-HT Transporter (setting [2]) worked out at 962 nM.

For the compound `Fc1cccc(OC2CN([C@H]3CC[C@H](c4c[nH]c5ccc(F)cc54)CC3)C2)c1` [Example 7b, 5-Fluoro-3-{trans-4-[3-(3-fluoro-phenoxy)-azetidin-1-yl]-cyclohexyl}-1H-indole], at 5-HT transporter (read-out: RB 5HT Transporter Ki; rat frontal cortical membranes; ^3 H-paroxetine (0.1 nM), 60 min, 25° C.; n = 1), the Ki was 68 nM. Besides, the IC50 on Human 5-HT Transporter (read-out: HC 5HT Transporter IC50, Jar cells (human carcinoma), staurosporine treated, ^3 H-5-HT uptake, 37° C., 5 min, n = 1) was determined as 6000 nM.

Regarding `Fc1cccc(OC2CN(C3CCC(c4c[nH]c5cc(F)ccc45)CC3)C2)c1` (single isomer, unassigned) [Example 10b, 6-Fluoro-3-{4-[3-(3-fluoro-phenoxy)-azetidin-1-yl]-cyclohexyl}-1H-indole], the Ki at 5-HT transporter (setting [1]) was found to be 73 nM. For the same compound, at Human 5-HT Transporter (setting [2]), the IC50 was 4600 nM.

As to `COc1cccc(OC2CN([C@H]3CC[C@H](c4c[nH]c5ccc(F)cc54)CC3)C2)c1` [Example 8b, 5-Fluoro-3-{trans-4-[3-(3-methoxy-phenoxy)-azetidin-1-yl]-cyclohexyl}-1H-indole], the Ki on 5-HT transporter (setting [1]) is 45 nM. On Human 5-HT Transporter (setting [2]), the IC50 worked out at 1500 nM.

Take `Fc1cccc(NC2CN([C@H]3CC[C@@H](c4c[nH]c5ccc(F)cc54)CC3)C2)c1` [Example 4, {1-[cis-4-(5-Fluoro-1H-indol-3-yl)-cyclohexyl]-azetidin-3-yl}-(3-fluoro-phenyl)-amine]: the Ki at 5-HT transporter (setting [1]) was 18 nM. The IC50 on Human 5-HT Transporter (setting [2]) came to 6390 nM.

On to `Fc1cccc(OC2CN([C@H]3CC[C@@H](c4c[nH]c5ccccc54)CC3)C2)c1` [Example 9a, 3-{4-[3-(3-Fluoro-phenoxy)-azetidin-1-yl]-cyclohexyl}-1H-indole], for which, at 5-HT transporter (setting [3]), the Ki worked out at 275 nM.

As to `Fc1cccc(OC2CN(C3CCC(c4c[nH]c5cc(F)ccc45)CC3)C2)c1` (single isomer, unassigned) [Example 10a, 6-Fluoro-3-{4-[3-(3-fluoro-phenoxy)-azetidin-1-yl]-cyclohexyl}-1H-indole], the Ki on 5-HT transporter (setting [1]) came to 190 nM.

Turning to “2-{cis-4-[3-(3-Methoxy-phenoxy)-azetidin-1-yl]-cyclohexyl}-1H-indole [Example 6a]”, the inhibition constant Ki at 5-HT transporter (setting [1]) is 120 nM.

With `COc1ccccc1NC1CN([C@H]2CC[C@H](c3c[nH]c4ccc(F)cc43)CC2)C1` [Example 1b], at 5-HT transporter (setting [1]), the Ki is 17 nM. Besides, the IC50 at Human 5-HT Transporter (setting [2]) is 591 nM.
